Consider 19 molecules from patent US12404239B2, “Modulators of BCL6 as ligand directed degraders” (Celgene Corporation, priority 2022, dated 2025).

Where only a bound is given, the exact number is not on record here.

The target of the experiment is T1, BCL6 (Homo sapiens, UniProt P41182).
T1 construct: HiBiT-tag knocked into endogenous BCL6 locus using CRISPR; endogenous in cells; host or cells: DHL-4_BCL6_HiBiT cells (CRISPR knock-in)
Nature of the experiment: BCL6_HiBiT degradation assay (2 h). The experiment is classed as cell-based. The conditions noted are these: DHL-4_BCL6_HiBiT cells, read-out: YCon (% remaining maximal effect). The protocol: A DHL-4 cell line with HiBiT-tag knocked into endogenous BCL6 locus using CRISPR was generated. The DHL-4_BCL6_HiBiT cells were dispensed into 384-well plates (Corning no. 3570) that were pre-spotted with compounds. Compounds were dispensed by an acoustic dispenser (ATS acoustic transfer system from EDC Biosystems) into a 384-well plate in a 10-point dose response curve using 3-fold dilutions starting at 1-10 μM and going down to […]. 25 μL of media (RPMI-1640+10% heat inactivated FBS+1×Pen/Strep) containing 2500 of DHL-4 was dispensed per well. Assay plates were incubated at 37° C. with 5% CO2 for 2 hours. After incubation, 25 μL of the Nano-Glo HiBiT lytic detection working solution (Promega, catalogue no. N3040, Madison, WI) was added to each well and incubated at room temperature for 15-30 min, protected from light. After 30 min, luminescence was read on an Envision or PHERAstar luminescence reader. To determine the EC50 value (the half-maximum effective concentration) and the level of the gradation (Yconstant) of a BCL6 degrader, luminescent signal normalized by DMSO control (Y) and compound concentration (x) was fitted using a four-parameter dose-response model (Y=(A+((B−A)/1+((C/x)^D) in Dotmatics. Fitted value C is the degradation EC50 and the minimum value A is the Y constant.
The degradation of BCL6 at 2 h in DHL-4 results are shown in Table 5, where EC50 is the half maximal effect and Ycon is the % remaining maximal effect.
(In general: The HiBiT peptide binds its large partner to form an active luciferase.)
For `C[C@@H]1CN(c2ncc(Cl)c(Nc3ccc4c(c3)CC(=O)N4CC(C)(F)F)n2)CC[C@H]1Nc1ccc2c(C3CCC(=O)NC3=O)nn(C)c2c1` (stereo partly drawn) [Example 110, 3-(6-(((3R,4R)-1-(5-chloro-4-((1-(2,2-difluoropropyl)-2-oxoindolin-5-yl)amino)pyrimidin-2-yl)-3-methylpiperidin-4-yl)amino)-1-methyl-1H-indazol-3-yl)piperidine-2,6-dione], the Percent BCL6 remaining at maximal degradation (Ycon) is less than 20%.

In the case of `C[C@@H]1CN(c2ncc(Cl)c(Nc3cc4c(cc3F)N(C)C(=O)C4)n2)CC[C@H]1Nc1ccc2c([C@H]3CCC(=O)NC3=O)nn(C)c2c1` (single isomer, unassigned) [Example 93], the Percent BCL6 remaining at maximal degradation (Ycon) was less than 20%.

On to `Cn1nc(N2CCC(=O)NC2=O)c2ccc(NC3CCN(c4ncc(Cl)c(Nc5ccc6c(c5)CC(=O)N6CCO)n4)CC3)cc21` [Example 137, 1-(6-((1-(5-chloro-4-((1-(2-hydroxyethyl)-2-oxoindolin-5-yl)amino)pyrimidin-2-yl)piperidin-4-yl)amino)-1-methyl-1H-indazol-3-yl)dihydropyrimidine-2,4(1H,3H)-dione], for which the Percent BCL6 remaining at maximal degradation (Ycon) was 20 to 60%.

Consider `CN1C(=O)Cc2cc(Nc3nc(N(C)[C@H]4CCN(c5ccc6c(C7CCC(=O)NC7=O)nn(C)c6c5)C(=O)C4)ncc3Cl)ccc21` (single isomer, unassigned) [Example 128], for which the Percent BCL6 remaining at maximal degradation (Ycon) is 20 to 60%.

As to `CN1C(=O)Cc2cc(Nc3nc(N4CCC(Nc5ccc6c(N7CCC(=O)NC7=O)nn(C)c6c5)CC4)ncc3C#N)ccc21` [Example 138, 2-(4-((3-(2,4-dioxotetrahydropyrimidin-1(2H)-yl)-1-methyl-1H-indazol-6-yl)amino)piperidin-1-yl)-4-((1-methyl-2-oxoindolin-5-yl)amino)pyrimidine-5-carbonitrile], the Percent BCL6 remaining at maximal degradation (Ycon) was more than 60%.

For the molecule `C[C@@H]1CN(c2ncc(C#N)c(Nc3cc(F)c4c(c3)CC(=O)N4C)n2)CC[C@H]1Nc1ccc2c(C3CCC(=O)NC3=O)nn(C)c2c1` (stereo partly drawn) [Example 116, 2-((3R,4R)-4-((3-(2,6-dioxopiperidin-3-yl)-1-methyl-1H-indazol-6-yl)amino)-3-methylpiperidin-1-yl)-4-((7-fluoro-1-methyl-2-oxoindolin-5-yl)amino)pyrimidine-5-carbonitrile], the Percent BCL6 remaining at maximal degradation (Ycon) was less than 20%.

Take `CN1C(=O)Cc2cc(Nc3nc(N4CCC(Nc5ccc6c(C7CCC(=O)NC7=O)nn(C)c6c5)CC4)ncc3Cl)ccc21` (stereo not shown) [Example 52, 3-(6-((1-(5-chloro-4-((1-methyl-2-oxoindolin-5-yl)amino)pyrimidin-2-yl)piperidin-4-yl)amino)-1-methyl-1H-indazol-3-yl)piperidine-2,6-dione]: the Percent BCL6 remaining at maximal degradation (Ycon) lay within 20 to 60%.

In the case of `C[C@@H]1CN(c2ncc(Cl)c(Nc3cc4c(cc3F)N(C)C(=O)C4)n2)CC[C@H]1Nc1ccc2c([C@@H]3CCC(=O)NC3=O)nn(C)c2c1` (single isomer, unassigned) [Example 94], the Percent BCL6 remaining at maximal degradation (Ycon) was less than 20%.

Regarding `C[C@H]1C[C@H](Nc2ccc3c([C@H]4CCC(=O)NC4=O)nn(C)c3c2)CCN1c1ncc(Cl)c(Nc2ccc3c(c2)CC(=O)N3C)n1` (single isomer, unassigned) [Example 82], the Percent BCL6 remaining at maximal degradation (Ycon) was less than 20%.

Regarding `CN1C(=O)Cc2cc(Nc3nc(N4CC[C@@H](N(C)c5ccc6c(C7CCC(=O)NC7=O)nn(C)c6c5)[C@H](F)C4)ncc3Cl)ccc21` (stereo partly drawn) [Example 46, 3-[6-[[(3R,4R)-1-[5-Chloro-4-[(1-methyl-2-oxo-indolin-5-yl)amino]pyrimidin-2-yl]-3-fluoro-4-piperidyl]-methyl-amino]-1-methyl-indazol-3-yl]piperidine-2,6-dione], the Percent BCL6 remaining at maximal degradation (Ycon) is more than 60%.

On to `COCCN1C(=O)Cc2cc(Nc3nc(N4CC[C@@H](Nc5ccc6c([C@H]7CCC(=O)NC7=O)nn(C)c6c5)[C@H](C)C4)ncc3Cl)ccc21` (single isomer, unassigned) [Example 76], for which the Percent BCL6 remaining at maximal degradation (Ycon) was less than 20%.

For the molecule `CN1C(=O)Cc2cc(Nc3nc(N(C)[C@H]4CC[C@H](Nc5ccc6c(C7CCC(=O)NC7=O)nn(C)c6c5)CC4)ncc3Cl)ccc21` (stereo partly drawn) [Example 3, 3-(6-(((trans)-4-((5-chloro-4-((1-methyl-2-oxoindolin-5-yl)amino)pyrimidin-2-yl)(methyl)amino)cyclohexyl)amino)-1-methyl-1H-indazol-3-yl)piperidine-2,6-dione], the Percent BCL6 remaining at maximal degradation (Ycon) is more than 60%.

Regarding `CN1C(=O)Cc2cc(Nc3nc(N4CCC(Nc5ccc6c(C7CCC(=O)NC7=O)nn(C)c6c5)CC4)ncc3C#N)ccc21` (stereo not shown) [Example 36, 2-(4-((3-(2,6-dioxopiperidin-3-yl)-1-methyl-1H-indazol-6-yl)amino)piperidin-1-yl)-4-((1-methyl-2-oxoindolin-5-yl)amino)pyrimidine-5-carbonitrile], the Percent BCL6 remaining at maximal degradation (Ycon) is more than 60%.

As for `CN1C(=O)Cc2cc(Nc3nc(N4CC[C@H](Nc5ccc6c(C7CCC(=O)NC7=O)nn(C)c6c5)C(F)(F)C4)ncc3Cl)ccc21` (stereo partly drawn) [Example 67, 3-(6-(((S)-1-(5-chloro-4-((1-methyl-2-oxoindolin-5-yl)amino)pyrimidin-2-yl)-3,3-difluoropiperidin-4-yl)amino)-1-methyl-1H-indazol-3-yl)piperidine-2,6-dione], the Percent BCL6 remaining at maximal degradation (Ycon) lay within 20 to 60%.

`Cn1nc(C2CCC(=O)NC2=O)c2ccc(NC3CCN(c4ncc(Cl)c(Nc5ccc6c(c5)CC(=O)N6CC(F)(F)F)n4)CC3)cc21` (stereo not shown) [Example 18, 3-(6-((1-(5-chloro-4-((2-oxo-1-(2,2,2-trifluoroethyl)indolin-5-yl)amino)pyrimidin-2-yl)piperidin-4-yl)amino)-1-methyl-1H-indazol-3-yl)piperidine-2,6-dione]: the Percent BCL6 remaining at maximal degradation (Ycon) was more than 60%.

Take `C[C@H]1C[C@H](Nc2ccc3c(C4CCC(=O)NC4=O)nn(C)c3c2)CCN1c1ncc(Cl)c(Nc2ccc3c(c2)CC(=O)N3C)n1` (stereo partly drawn) [Example 81, 3-(6-(((2S,4R)-1-(5-chloro-4-((1-methyl-2-oxoindolin-5-yl)amino)pyrimidin-2-yl)-2-methylpiperidin-4-yl)amino)-1-methyl-1H-indazol-3-yl)piperidine-2,6-dione]: the Percent BCL6 remaining at maximal degradation (Ycon) is less than 20%.

Consider `CNCCN1C(=O)Cc2cc(Nc3nc(N4CC[C@@H](Nc5ccc6c([C@H]7CCC(=O)NC7=O)nn(C)c6c5)[C@H](C)C4)ncc3Cl)ccc21` (single isomer, unassigned) [Example 105], for which the Percent BCL6 remaining at maximal degradation (Ycon) is less than 20%.

Regarding `C[C@@H]1CN(c2ncc(C#N)c(Nc3ccc4c(c3)CC(=O)N4C)n2)CC[C@H]1Nc1ccc2c(N3CCC(=O)NC3=O)nn(C)c2c1` [Example 132, 2-((3R,4R)-4-((3-(2,4-dioxotetrahydropyrimidin-1(2H)-yl)-1-methyl-1H-indazol-6-yl)amino)-3-methylpiperidin-1-yl)-4-((1-methyl-2-oxoindolin-5-yl)amino)pyrimidine-5-carbonitrile], the Percent BCL6 remaining at maximal degradation (Ycon) was less than 20%.

Consider `CN(c1ccc2c(C3CCC(=O)NC3=O)nn(C)c2c1)C1CCN(c2ncc(Cl)c(Nc3ccc4c(c3)N(CCC(C)(C)O)C(=O)C4)n2)CC1` (stereo not shown) [Example 10, 3-(6-((1-(5-chloro-4-((1-(3-hydroxy-3-methylbutyl)-2-oxoindolin-6-yl)amino)pyrimidin-2-yl)piperidin-4-yl)(methyl)amino)-1-methyl-1H-indazol-3-yl)piperidine-2,6-dione], for which the Percent BCL6 remaining at maximal degradation (Ycon) lay within 20 to 60%.
